We go through seven compounds from patent publication US11013698B2, “Combinations of LSD1 inhibitors for the treatment of hematological malignancies” (Oryzon Genomics S.A., priority 2016, dated 2021).

Where two headings read alike, the source gives them in different places.

Common to all, as to format: cell-based
Data set [1] relates to KASUMI-1. The data set can be described thus: Viability assay (96 hours), Alamar Blue. To be noted: for Reduction of viability (compared to vehicle controls): serial 1:3 dilution; for EC50: Homo sapiens, read-out: EC50 (viability). The method, then:
(§1) AML cell lines were maintained in RPMI 10% FBS medium at 37° C. in a humidified incubator with controlled 5% CO2 atmosphere. Cell freezing and thawing was performed following recommendation from ATCC. Genetic profiling of the cell lines used is available in table 2. Cells were seeded at the optimal density (to guarantee linear growth during the treatment), as previously determined (4000 cells/well, except 16000 cells/well in the case of KASUMI-1 cells), in 96-well plates with 50 μL of medium. Three wells were reserved for each experimental condition; medium-only and vehicle-treated controls were also added for background correction and normalization respectively. […] Alamar Blue® is a cell viability indicator that uses the natural reducing power of living cells to convert resazurin to the fluorescent molecule, resorufin^43.
In general terms: Alamar Blue is a resazurin reagent that responds to reducing activity.

The test system of data set [2] is MOLM-13. Description: Viability assay (96 hours), Alamar Blue. The note with it: for Reduction of viability (compared to vehicle controls): serial 1:3 dilution; for EC50: Homo sapiens, read-out: EC50 (viability). The method, then:
as §1

In data set [3] the test system is THP-1. The data set can be described thus: Viability assay (96 hours), Alamar Blue. The note with it: for Reduction of viability (compared to vehicle controls): serial 1:3 dilution; for EC50: Homo sapiens, read-out: EC50 (viability). The protocol: as §1
Data set [4] relates to OCI-AML3. The data set can be described thus: Viability assay (96 hours), Alamar Blue. The note with it: for Reduction of viability (compared to vehicle controls): serial 1:3 dilution; for EC50: Homo sapiens, read-out: EC50 (viability). The protocol:
as §1

The subject of data set [5] is HL-60. Description: Viability assay (96 hours), Alamar Blue. To be noted: for Reduction of viability (compared to vehicle controls): serial 1:3 dilution; for EC50: Homo sapiens, read-out: EC50 (viability). The protocol: as §1
Data set [6] deals with MV(4;11). Description: Viability assay (96 hours), Alamar Blue. To be noted: for Reduction of viability (compared to vehicle controls): serial 1:3 dilution; for EC50: Homo sapiens, read-out: EC50 (viability). The protocol: as §1
For data set [7], the system named is OCI-AML2. The data set can be described thus: Viability assay (96 hours), Alamar Blue. The note with it: for Reduction of viability (compared to vehicle controls): serial 1:3 dilution; for EC50: Homo sapiens, read-out: EC50 (viability). The method, then: as §1
The test system of data set [8] is MOLT-4 cells. Description: Viability after shorter treatment (96 hours). To be noted: MOLT-4, 96 hours treatment (data not shown).
Data set [9] has as its system MOLT-4 cells. The data set can be described thus: Viability assay (10 days), Alamar Blue. To be noted: MOLT4, 10 days. The method, then: MOLT4 cells were maintained in RPMI 10% FBS medium at 37° C. in a humidified incubator with controlled 5% CO2 atmosphere. Cell freezing and thawing was performed following recommendation from ATCC. Genetic profiling of the cell lines used is available in table 4.
Three wells were reserved for each experimental condition; medium-only and vehicle-treated controls were also added for background correction and normalization respectively. After seeding, 50 μL of medium containing 8 1:3 serial dilution of ORY-1001 were added to the cells (range 0.015-100 nM). Cells were then incubated for 6 days at 37° C. in a controlled 5% CO2 atmosphere. On the sixth day, 100 μL of medium with serial dilutions of ORY-1001 (as described previously) or vehicle were added to the cells. Medium without compound (100μ) was added to background control.
After 4 additional days of incubation, cell viability was evaluated using the Alamar Blue® staining as detailed in the section 1.1.2.

The mark [10] stands for this setting: KASUMI-1, 96 hours, single agent.
[11] abbreviates: MOLM-13, 96 hours, single agent.
Where [12] appears, read: OCI-AML-3, OCI-AML3, 96 hours, single agent.
The mark [13] stands for this setting: MV4-11, MV(4;11), 96 hours, single agent.
The mark [14] stands for this setting: OCI-AML2, 96 hours, single agent.

As for `O=C(CCCCCCNC(=O)c1cnc(N(c2ccccc2)c2ccccc2)nc1)NO` [Rocilinostat, Ricolinostat], the “Reduction of viability (compared to vehicle controls)” value (from here on “Reduction of viability”) in data set [1] (KASUMI-1, 96 hours) is listed as “greater than 20%”; in data set [2] (MOLM-13, 96 hours), “greater than 20%”; in data set [3] (THP-1, 96 hours), “greater than 20%”; in [4] (OCI-AML3, 96 hours), “greater than 20%”; in [5] (HL-60, 96 hours), “greater than 20%”; in [6] (MV(4;11), 96 hours) it was “greater than 20%”. In data set [7] (OCI-AML2, 96 hours), the “Reduction of viability” value is given as “greater than 20%”.
One may read the EC50 as the concentration giving half of the maximal effect. As for `Nc1ccn([C@@H]2O[C@H](CO)[C@@H](O)[C@@H]2O)c(=O)n1` [ARA-C, arabinofuranosyl cytidine], the EC50 was 0.0287 µM in data set [1] (setting [10]); 0.0785 µM in [2] (setting [11]); 0.252 µM in [3] (THP-1, 96 hours, single agent); 0.145 µM in [4] (setting [12]); 0.0435 µM in data set [5] (HL-60, 96 hours, single agent); 0.198 µM in [6] (setting [13]). For the same compound, the EC50 in [7] (setting [14]) was found to be 0.0265 µM. In addition, the “Reduction of viability” value was “greater than 20%” in [1] (KASUMI-1, 96 hours); “greater than 20%” in data set [2] (MOLM-13, 96 hours); “greater than 20%” in data set [3] (THP-1, 96 hours); “greater than 20%” in data set [4] (OCI-AML3, 96 hours); “greater than 20%” in data set [5] (HL-60, 96 hours); “greater than 20%” in [6] (MV(4;11), 96 hours). For the same compound, the “Reduction of viability” value in [7] (OCI-AML2, 96 hours) was “greater than 20%”.
For `Nc1ncn([C@@H]2O[C@H](CO)[C@@H](O)[C@H]2O)c(=O)n1` [Azacitidine], the EC50 amounted to 2.28 µM in data set [1] (setting [10]); 0.323 µM in data set [2] (setting [11]); 2.88 µM in [3] (THP-1, 96 hours, single agent); 0.889 µM in data set [4] (setting [12]); 1.81 µM in [5] (HL-60, 96 hours, single agent); 1.11 µM in data set [6] (setting [13]). For the same compound, the EC50 in [7] (setting [14]) was found to be 1.85 µM. Besides, the “Reduction of viability” value in [1] (KASUMI-1, 96 hours) was “greater than 20%”; in data set [2] (MOLM-13, 96 hours), “greater than 20%”; in data set [3] (THP-1, 96 hours), “greater than 20%”; in data set [4] (OCI-AML3, 96 hours), “greater than 20%”; in data set [5] (HL-60, 96 hours), “greater than 20%”; in data set [6] (MV(4;11), 96 hours), “greater than 20%”. The “Reduction of viability” value in data set [7] (OCI-AML2, 96 hours) is “greater than 20%”.
For `Nc1ncn([C@H]2C[C@H](O)[C@@H](CO)O2)c(=O)n1` [Decitabine, 5-aza-2′-deoxycytidine], the EC50 in data set [1] (Kasumi 1, 96 h) was 0.024 µM; in [2] (MOLM-13, 96 h), 0.0126 µM; in data set [3] (THP-1, 96 h), 0.095 µM; in data set [4] (OCI-AML-3, 96 h), 0.101 µM; in data set [5] (HL-60, 96 h) it was 0.0421 µM; in [6] (MV4-11, 96 h) it was 0.0795 µM. The EC50 in data set [7] (OCI-AML2, 96 h) came to 0.036 µM. Further, the “Reduction of viability” value in data set [1] (KASUMI-1, 96 hours) is listed as “greater than 20%”; in [2] (MOLM-13, 96 hours), “greater than 20%”; in data set [3] (THP-1, 96 hours) it was “greater than 20%”; in data set [4] (OCI-AML3, 96 hours) it was “greater than 20%”; in data set [5] (HL-60, 96 hours) it was “greater than 20%”; in data set [6] (MV(4;11), 96 hours), “greater than 20%”. In addition, the “Reduction of viability” value in data set [7] (OCI-AML2, 96 hours) was “greater than 20%”.
As to `O=C(CCCCCCC(=O)Nc1ccccc1)NO` [SAHA, suberanilohydroxamic acid], the “Reduction of viability” value in data set [1] (KASUMI-1, 96 hours) is listed as “greater than 20%”; in data set [2] (MOLM-13, 96 hours) it was “greater than 20%”; in data set [3] (THP-1, 96 hours) it was “greater than 20%”; in data set [4] (OCI-AML3, 96 hours), “greater than 20%”; in [5] (HL-60, 96 hours) it was “greater than 20%”; in data set [6] (MV(4;11), 96 hours), “greater than 20%”. In [7] (OCI-AML2, 96 hours), the “Reduction of viability” value is “greater than 20%”.
With `Nc1ccccc1NC(=O)c1ccc(CNC(=O)OCc2cccnc2)cc1` [Entinostat], the EC50 came to 0.168 µM in data set [1] (setting [10]); 0.052 µM in [2] (setting [11]); 0.23 µM in [3] (THP-1, 96 hours, single agent); 0.0552 µM in data set [4] (setting [12]); 0.042 µM in [5] (HL-60, 96 hours, single agent); 0.0985 µM in [6] (setting [13]). Besides, the EC50 in data set [7] (setting [14]) turned out to be 0.106 µM. Moreover, the “Reduction of viability” value is on record as “greater than 20%” in [1] (KASUMI-1, 96 hours); “greater than 20%” in data set [2] (MOLM-13, 96 hours); “greater than 20%” in [3] (THP-1, 96 hours); “greater than 20%” in data set [4] (OCI-AML3, 96 hours); “greater than 20%” in data set [5] (HL-60, 96 hours); “greater than 20%” in data set [6] (MV(4;11), 96 hours). The “Reduction of viability” value in data set [7] (OCI-AML2, 96 hours) was “greater than 20%”.
Take `N[C@H]1CC[C@H](N[C@@H]2C[C@H]2c2ccccc2)CC1` [ORY-1001, (trans)-N1-((1R,2S)-2-phenylcyclopropyl)cyclohexane-1,4-diamine]: in [8], the Effect on viability result is “not affecting the viability”. For the same compound, the “Reduction of viability” value is recorded as “greater than 20%” in data set [1] (KASUMI-1, 96 hours); “greater than 20%” in data set [2] (MOLM-13, 96 hours); “greater than 20%” in data set [3] (THP-1, 96 hours); “greater than 20%” in data set [4] (OCI-AML3, 96 hours); “greater than 20%” in data set [5] (HL-60, 96 hours); “greater than 20%” in data set [6] (MV(4;11), 96 hours). In addition, the “EC50 (viability)” value was “sub-nanomolar range” in data set [1] (setting [10]); “sub-nanomolar range” in [2] (setting [11]); “sub-nanomolar range” in data set [3] (THP-1, 96 hours, single agent); “sub-nanomolar range” in [4] (OCI-AML3, 96 hours, single agent); “sub-nanomolar range” in [5] (HL-60, 96 hours, single agent); “sub-nanomolar range” in data set [6] (MV(4;11), 96 hours, single agent). Moreover, the “EC50 (viability)” value in data set [9] is “sub-nanomolar range”. Also, in [9] (Homo sapiens, MOLT-4, 240 h, highest ORY-1001 concentration 100 nM, read-out: Viability reduction (compared to vehicles)), the cytotoxicity at 0.1 µM was > 20%.
